The source of these data is patent US12213485B2, “Synergistic methods of using benzoxaborole compounds and preservative gases as an antimicrobial for crops” (AGROFRESH INC., priority 2016, dated 2025).

Test [1] relates to Mucor piriformis (MUCOPI) on strawberries. Nature of the test: In vivo disease severity on wound-inoculated strawberries, benzoxaborole and CO2 chamber treatment. As to conditions: Table 10, 12% CO2 alone, evaluated 2 days after treatment, fan first 6 hours, >90% R.H. From the text: (§1) The following experiments were used to determine synergy between benzoxaborole Compounds A, B, and/or C and preservative gases, such as carbon dioxide (CO2) and sulfur dioxide (SO2). Specific rates or any other unique conditions are noted within the corresponding results tables. Each experiment comprised an air-tight 36 liter (L) chamber (Fisher Scientific, P/N: 08-642-23C), fitted with a bulkhead septum port (Swagelok, P/N: SS-400-61, Solon, OH) used for treatment delivery, as well as for monitoring (using needle extraction) carbon dioxide (CO2), sulfur dioxide (SO2), oxygen (O2) or other headspace samples. A variable speed fan (Thermaltake, Mobile Fan II, P/N: A1888, Taipei City, Taiwan) set to low was also used to circulate the headspace atmosphere.
(§2) For in vivo experiments, eight strawberry fruits per repetition were surface sterilized with a 70% ethanol solution. After sterilization, the strawberries were rinsed twice with deionized water. Each strawberry fruit was wounded using a T15 screwdriver tip to a uniform depth of eight mm (8 mm). Each fruit wound was inoculated with 20 μL of 1×10^5 spores/ml pathogen spore suspension of B. cinerea or M. piriformis. The strawberries were then placed with the stem facing downwards inside a 1-pound strawberry clamshell.
(§3) For treatment, the inoculated agar plates and clamshells containing fruits (e.g., strawberries and grapes) were placed inside a 36 L experimental chamber unit, which was then sealed prior to commencement of compound treatments. The chamber remained sealed throughout the duration of the experiment except for addition of treatment to the chamber, and post-treatment ventilation.
(§4) Benzoxaborole Compound A or Compound B was dissolved in acetone and dispensed onto a 60 mm Whatman #1 filter paper disk using a pipette. The acetone was permitted to evaporate for five minutes before the disk was placed on a watch glass in each chamber.
(§5) A 12% CO2 headspace treatment was then established in the chamber by permitting 10 grams (g) of crushed dry ice placed in a weigh boat in the chamber to evaporate in the sealed chamber. However, the bulkhead port of the chamber was loosened to permit the release of internal pressure. Optionally, a fan was used during the initial hours of treatment (i.e., up to about 6 hours of treatment) to ensure uniform treatment exposure of fruits and plates.
(§6) Untreated controls and CO2 treated chambers contained an acetone-treated disk with similar evaporation for five minutes. CO2 and O2 levels in the chamber were monitored using a handheld gas detector (Dansensor Checkpoint II; P/N 600111, Ringsted, Denmark). Temperature and relative humidity were also monitored within the chamber using data loggers (Onset HOBO; P/N U12-013, Bourne, MA).
(§7) The chamber for all in vitro and in vivo experiments was held at room temperature (i.e., from about 21° C. to about 23° C.) typically for about 3.5 days (i.e., about 84 hours) of treatment exposure. Chambers were then vented. After an additional 2-3 days with the chamber at room temperature, post-treatment radial growth (in mm) of each in vitro pathogen (see Examples 1-7, Tables 1-7) was measured on the inoculated plates using electronic calipers (Mitutoyo, P/N: CD-6-CX, Aurora, IL). In addition, the point of inoculation on fruits was assessed for indication of in vivo disease incidence (e.g., yes or no) and severity of disease incidence (see Examples 8-16, Tables 8-16). Disease severity was rated on a scale ranging from 0 to 4, where “0” indicated no disease severity, “1” indicated minimal disease severity, “2” indicated medium disease severity, “3” indicated high disease severity, and “4” indicated exceptionally high disease severity. […]

Test [2] deals with Botrytis cinerea (BOTRCI) on strawberries. Described as above.
Source text: as §1, §2, §3, §4, §5, §6, §7

The subject of test [3] is Penicillium expansum (PENIEX). Briefly: In vitro fungal growth on inoculated agar plates, benzoxaborole and CO2 chamber treatment. The format is cell-based.
Source text: as §1
(§8) In vitro and in vivo experiments were performed concurrently in triple replicates (i.e., triplicate) unless otherwise noted. For in vitro experiments, a single 6-well microtiter plate or three, 10-cm petri plates each containing half strength Potato Dextrose Agar were prepared. Each well or plate was inoculated with 1 microliter (μL) of 1×10^5 spores/ml of the appropriate pathogenic spore suspension (e.g., Botrytis cinerea, BOTRCI; Penicillium expansum, PENIEX; Mucor piriformis, MUCOPI; Fusarium sambucinum FUSASA; or Aspergillus brasiliensis, ASPEBR). The inoculated microtiter or petri plates were then sealed with a breathable film (AeraSeal; P/N: B-100, Excel Scientific, Victorville, CA).
as §3, §4, §5, §6, §7

The test system of test [4] is Aspergillus brasiliensis (ASPEBR). The description is as above. The format is cell-based.
Source text: as §1, §8, §3, §4, §5, §6, §7

Test [5] concerns Fusarium sambucinum (FUSASA). Described as above. The class given is cell-based.
Source text: as §1, §8, §3, §4, §5, §6, §7

Test [6] concerns Mucor piriformis (MUCOPI). The description is as above. The class given is cell-based. As to conditions: Table 3, 12% CO2 alone, evaluated 2 days after treatment, 6-well microtiter plate, fan first 6 hours, >90% R.H.
Source text: as §1, §8, §3, §4, §5, §6, §7

The subject of test [7] is Botrytis cinerea (BOTRCI). The description is as above. The class given is cell-based.
Source text: as §1, §8, §3, §4, §5, §6, §7

Test [8] concerns Botrytis cinerea (BOTRCI) on table grapes. Briefly: In vivo disease severity on wound-inoculated table grapes, benzoxaborole and CO2 chamber treatment. Particulars: Table 15, 12% CO2 alone, evaluated 1 day after treatment, fan continuous.
Source text: as §1
(§9) Similarly, table grape fruits were also tested in vivo. More specifically, 16-20 table grapes per repetition were washed and inoculated with pathogens (as described above for the strawberries). However, an ethanol-sterilized push pin, rather than a T15 screwdriver, was used to wound the stem-end of the grapes. The grapes were inoculated in the wound, and then arranged inside a 1-pint clamshell.
as §3, §4, §5, §6, §7

In test [9] the test system is Penicillium expansum (PENIEX) on table grapes. The test is described as above. As to conditions: Table 16, 12% CO2 alone, evaluated 1 day after treatment, fan continuous.
Source text: as §1, §9, §3, §4, §5, §6, §7

The mark [10] stands for this setting: Table 1, 12% CO2 alone, evaluated 2 days after treatment completion, 6-well microtiter plate, 4 replicates, fan first 6 hours.
Where [11] appears, read: Table 4, 12% CO2 alone, evaluated 2 days after treatment completion, 6-well microtiter plate, fan first 6 hours.
[12] abbreviates: Table 5, 12% CO2 alone, evaluated 2 days after treatment, 6-well plate, fan first 6 hours, >90% R.H.
[13] abbreviates: Table 5, compound 0.14 mg/L + 12% CO2, Colby equation E=x+y−x*y/100.
Setting [14] is: Table 5, compound 0.14 mg/L + 12% CO2, evaluated 2 days after treatment, 6-well plate, fan first 6 hours, >90% R.H.
Setting [15] is: Table 5, compound alone 0.14 mg/L, evaluated 2 days after treatment, 6-well plate, fan first 6 hours, >90% R.H.

Molecules are shown by their SMILES.

For the compound `O=C=O` [CO2, carbon dioxide], the “Growth (Severity, 0 to 4) 12% CO2” value in [1] is recorded as 3.0; in [2] (Table 8, 12% CO2 alone, evaluated 2 days after treatment, 4 replicates, fan first 6 hours, >90% R.H.) it was 3.7; in test [2] (Table 9, 12% CO2 alone, evaluated 3 days after treatment, fan first 6 hours, >90% R.H.), 3.5; in test [2] (Table 11, 12% CO2 alone, evaluated 2 days after treatment, fan first 6 hours, >90% R.H.), 2.7; in test [2] (Table 12, 12% CO2 alone, evaluated 2 days after treatment, fan first 6 hours, >90% R.H.), 3.4; in [2] (Table 13, 12% CO2 alone, evaluated 3 days after treatment, fan run continuously), 3.2. For the same compound, the “Growth (Severity, 0 to 4) 12% CO2” value in test [2] (Table 14, 12% CO2 alone, evaluated 3 days after treatment, fan continuous) was 3.9; in [8] it was 1.4; in test [9] it was 1.9. Moreover, the “Growth (diameter, mm) 12% CO2” value in test [3] (setting [10]) is 18.6 mm; in test [3] (Table 2, 12% CO2 alone, evaluated 2 days after treatment, 6-well microtiter plate, fan first 6 hours, >90% R.H.), 21.3 mm; in test [3] (setting [11]) it was 21.2 mm; in [3] (setting [12]), 19.9 mm; in test [3] (Table 7, 12% CO2 alone, evaluated 3 days after treatment, 10 cm Petri plates, fan continuous) it was 25.8 mm; in test [4] (setting [12]), 26.2 mm. Moreover, the “Growth (diameter, mm) 12% CO2” value was 33.9 mm in test [5] (setting [12]); 35.0 mm in [6]; 28.0 mm in [7] (setting [10]); 30.9 mm in test [7] (Table 3, 12% CO2 alone, evaluated 2 days after treatment, 6-well microtiter plate, fan first 6 hours, >90% R.H.); 33.4 mm in test [7] (setting [11]); 35.0 mm in test [7] (setting [12]). The “Growth (diameter, mm) 12% CO2” value in test [7] (Table 6, 12% CO2 alone, evaluated 3 days after treatment, 10 cm petri plates, fan continuous) was 78.9 mm.

As to `Fc1ccc2c(c1)COB2OCCOB1OCc2cc(F)ccc21` [Compound B], the “Colby Calculation” value is reported as 105.0 in [2] (Table 11, compound 0.14 mg/L + 12% CO2, Colby equation E=x+y−x*y/100); 100.9 in test [2] (Table 12, compound 0.14 mg/L + 12% CO2, Colby equation E=x+y−x*y/100); 102.4 in test [3] (setting [13]); 112.0 in test [4] (setting [13]); 100.4 in test [5] (setting [13]); 103.4 in test [7] (setting [13]). For the same compound, the “Growth (Severity, 0 to 4) Cmpd + 12% CO2” value in [2] (Table 11, compound 0.14 mg/L + 12% CO2, evaluated 2 days after treatment, fan first 6 hours, >90% R.H.) is given as 0.5; in [2] (Table 12, compound 0.14 mg/L + 12% CO2, evaluated 2 days after treatment, fan first 6 hours, >90% R.H.), 0.3. In addition, the “Growth (Severity, 0 to 4) Cmpd” value in test [2] (Table 11, compound alone 0.14 mg/L, evaluated 2 days after treatment, fan first 6 hours, >90% R.H.) is 0.9; in test [2] (Table 12, compound alone 0.14 mg/L, evaluated 2 days after treatment, fan first 6 hours, >90% R.H.), 0.4. Also, the “Growth (diameter, mm) Cmpd + 12% CO2” value in test [3] (setting [14]) turned out to be 6.4 mm; in [4] (setting [14]), 0.0 mm; in test [5] (setting [14]) it was 3.4 mm; in test [7] (setting [14]), 2.7 mm. Also, the “Growth (diameter, mm) Cmpd” value came to 7.7 mm in [3] (setting [15]), 3.6 mm in test [4] (setting [15]), 3.6 mm in [5] (setting [15]) and 3.5 mm in [7] (setting [15]).
